Assay results from patent US20110123617A1, “CLIOQUINOL FOR THE TREATMENT OF HEMATOLOGICAL MALIGNANCIES” (priority 2007, published 2011).

Columns and labels:
[1] = system: chymotrypsin-like activity of the proteasome; test: Proteasome activity after treatment of intact cell lines; format: cell-based; details: intact leukemia and myeloma cell lines
Method: A) Proteasome activity of MDAY-D2 and JJN3 cellular extracts after two hours of treatment with clioquinol (CQ), CuCl2 (Cu), or an equimolar concentration of CQ and Cu. After treatment, the preferential chymotrypsin-like substrate Suc-LLVY-AMC was added and the rate of free AMC was measured over time with a florescent spectrophotometric plate reader (excitation=380 nm, emission=460 nm). B) Proteasome activity of intact MDAY-D2 and JJN3 cells after two hours of treatment with clioquinol (CQ), CuCl2 (Cu), or an equimolar concentration of CQ and Cu. After treatment, the preferential chymotrypsin-like substrate Suc-LLVY-AMC was added and the rate of free AMC was measured over time with a florescent spectrophotometric plate reader (excitation=380 nm, emission=460 nm). Cellular proteins were extracted from cells with lysis buffer (50 mM HEPES pH 7.5, 150 mM NaCl, 2 mM ATP, and 1% Triton X-100). The chymotrypsin-like activity of the proteasome was measured by incubating equal amounts of protein with the preferential chymotrypsin-like substrate Suc-LLVY-AMC in assay buffer (50 mM Tris-HCl, pH 7.5, 150 mM NaCl) for two hours. After incubation, […] and the rate of free AMC was measured over time with a florescent spectrophotometric plate reader (excitation=380 nm, emission=460 nm). […]

ubiquitinated proteins = test: Immunoblotting of ubiquitinated proteins; format: cell-based; details: leukemia and myeloma cells
Method: Effect of increasing concentrations of clioquinol on LP1 and MY5 multiple myeloma cells at twenty hours after clioquinol treatment; determined by SDS-PAGE immunoblotting. To prepare cytosolic extracts, NIH3T3 cells and myeloma cells were washed with phosphate-buffered saline (PBS, pH 7.4) and suspending in lysis buffer [10 mM Tris (pH 7.4), 150 mM NaCl, 0.1% Triton X-100, 0.5% sodium deoxycholate, and 5 mM EDTA] containing protease inhibitors (Complete tablets, Roche, Indianapolis, Ind.). Protein concentrations were determined by the Bradford assay. Immunoblot assays were performed by subjecting equal amounts of protein to SDS-PAGE gels followed by transfer to Nitrocellulose membranes. Membranes were probed with polyclonal rabbit anti-human cyclin D2 (0.5 μg/ml, both from Santa Cruz Biotech, Santa Cruz, Calif.), or monoclonal mouse-anti human p21 (1:200 v/v, Santa Cruz Biotech), monoclonal mouse-anti human p27 (1:2,500 v/v BD Transduction Laboratories), polyclonal mouse-anti human ubiquitin (1:2,000 v/v Calbiochem) and monoclonal mouse-anti-β-actin (1:10,000 v/v) (Sigma, St. Lois, Mo.). Secondary antibodies (Amersham Bioscience UK, Little Chalfont, England) were horseradish peroxidase (HRP)-conjugated goat anti-mouse IgG (1:10,000 v/v) and anti-rabbit (1:5,000 v/v). Detection was performed by the Enhanced Chemical Luminescence (ECL) method (Pierce, Rockford, Ill.).

myeloma cell lines = test: Cell viability (MTS assay), myeloma cell lines; format: cell-based; details: 12/14 myeloma cell lines, forty-eight hours; read-out: IC50 (cell death)
Method: Cell viability of leukemia, myeloma, solid tumor and primary cells forty-eight hours after clioquinol treatment by MTS assay. Cell viability was assessed with the CellTiter96® Aqueous Non-Radioactive Assay kit according to manufactures' instructions (Promega). Apoptosis was measured by flow cytometry to detect cell surface Annexin V expression and propidium iodide (PI) uptake (Biovision, Mountain View, Calif., USA) as previously described (20) The inventors tested the effects of clioquinol on the viability of acute leukemia (n=7), myeloma (n=14), and solid tumor (n=5) cell lines as well as primary AML samples (n=6) and primary normal hematopoietic cells (n=3). Forty-eight hours after incubation, clioquinol induced cell death in 6/7 AML, 12/14 myeloma, 0/5 solid tumor, […] and 0/3 normal hematopoietic cells with an IC50 <20 μM (FIG. 5). Of note, after oral administration of clioquinol, trough serum concentrations of 20 μM can be achieved in patients (32).

[2] = system: proteasome in primary AML cells; test: Proteasome activity in primary AML cells; format: cell-based, human
Method: Proteasome activity of primary acute myeloid leukemia (AML) blasts or normal peripheral blood stem cells (PBSC) after twenty hours of treatment with clioquinol (CQ), or an equimolar concentration of […] and CuCl2 (Cu). After treatment, the preferential chymotrypsin-like substrate Suc-LLVY-AMC was added and the rate of free AMC was measured over time with a florescent spectrophotometric plate reader (excitation=380 nm, emission=460 nm). Cellular proteins were extracted from cells with lysis buffer (50 mM HEPES pH 7.5, 150 mM NaCl, 2 mM ATP, and 1% Triton X-100). The chymotrypsin-like activity of the proteasome was measured by incubating equal amounts of protein with the preferential chymotrypsin-like substrate Suc-LLVY-AMC in assay buffer (50 mM Tris-HCl, pH 7.5, 150 mM NaCl) for two hours. After incubation, […] and the rate of free AMC was measured over time with a florescent spectrophotometric plate reader (excitation=380 nm, emission=460 nm). The inventors examined the effect of clioquinol and copper on primary AML cells and normal hematopoietic cells. Primary AML were obtained from the peripheral blood of patients with AML. Normal hematopoietic stem cells (PBSC) were obtained from the peripheral blood of volunteers donating stem cells for allotransplant. […] After incubation, cell lysates were prepared and the enzymatic activity of the proteasome measured as above.

SMILES: Oc1c(I)cc(Cl)c2cccnc12 [clioquinol, 5-chloro-7-iodo-8-hydroxyquinoline]
- chymotrypsin-like activity of the proteasome [1]: inhibited chymotrypsin-like activity at low micromolar concentrations
- amount of ubiquitinated protein (ubiquitinated proteins): increased the amount of ubiquitinated protein
- IC50 (myeloma cell lines): < 20 µM
- enzymatic activity of the proteasome [2]: inhibited the proteasome
